The values below are quoted from earlier work in US20260028295A1, “COMPOSITIONS THAT CONTAIN SUSPENDED DICYANDIAMIDE, AND RELATED METHODS” (Keystone Specialty Chemicals LLC, priority 2022, published 2026).

For this data set the following is noted: 25 degrees Celsius.

SMILES strings stand for the structures.

For the compound `N#CNC(=N)N` [Dicyandiamide], the solubility in water was 4.13 grams per 100 milliliter.
